Values after ≈ are worked out from the molar mass of the structure shown. Like-named read-outs stand apart in the source and are kept apart here.
What was measured:
Format in all cases: cell-based
[1] = system: S. aureus NB01006-AVR005, gyrA (S84L), grlA (580F) and grlB (E471K); assay: microbe, parasite or virus in culture; conditions: for MIC: Staphylococcus aureus, 20 h, read-out: Antibacterial activity (MIC) NB01006-AVR005
Procedure, shortened: (§1)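 CAMHB, ~5×10^5 CFU/mL, 2-fold serial dilutions (final DMSO 1%), 35° C, ambient air, 20 h. Read OD600 plus visual check; MIC = lowest conc. with no visible growth, μg/mL.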

[2] = system: S. pneumoniae ATCC 25922 (NB07001); assay: MIC by broth microdilution, S. pneumoniae NB07001; conditions: for MIC: Streptococcus pneumoniae, read-out: Antibacterial activity (MIC) NB07001
Procedure, shortened: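 MIC in μg/mL taken as the lowest concentration with no visible growth, checked by 600 nm reading after 20 h at 35°C, ambient air. Strains tested per CLSI microdilution in cation-adjusted Mueller-Hinton broth at about 5×10^5 CFU/mL, compounds as two-fold series, 1% DMSO final.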

[3] = system: P. aeruginosa NB52019, wild-type PAO1 strain; assay: MIC by broth microdilution, P. aeruginosa NB52019; conditions: CAMHB, 35° C., 20 hours; for MIC: Pseudomonas aeruginosa, read-out: Antibacterial activity (MIC) NB52019
Procedure, shortened: as §1

[4] = system: E. faecalis ATCC 29212 (NB04001); assay: MIC by broth microdilution, E. faecalis NB04001; conditions: 35° C., 20 hours; for MIC: Enterococcus faecalis, ATCC29212, CAMHB, read-out: Antibacterial activity (MIC) NB04001
Procedure, shortened: as §1

[5] = system: S. aureus ATCC 49951 (NB01006); assay: MIC by broth microdilution, S. aureus NB01006; conditions: 35° C., 20 hours; for MIC: Staphylococcus aureus, ATCC49951, CAMHB, read-out: Antibacterial activity (MIC) NB01006
Procedure, shortened: as §1

[6] = system: E. coli ATCC 25922 (NB27001); assay: MIC by broth microdilution, E. coli NB27001; conditions: 35° C., 20 hours; for MIC: Escherichia coli, ATCC25922, CAMHB, read-out: Antibacterial activity (MIC) NB27001
Procedure, shortened: as §1

[7] = system: S. aureus NB01080 fluoroquinolone-resistant clinical isolate; assay: MIC by broth microdilution, S. aureus NB01080; conditions: CAMHB, 35° C., 20 hours; for MIC: Staphylococcus aureus, read-out: Antibacterial activity (MIC) NB01080
Procedure, shortened: as §1

[8] = ATCC25922, S. pneumoniae, CAMHB supplemented with 5% lysed horse blood, 35° C., 20 hours

| Compound | MIC [1] [µg/mL] | MIC ([2]; ATCC25922, 20 h) [µg/mL] | MIC [3] [µg/mL] | MIC [4] [µg/mL] | MIC [5] [µg/mL] | MIC [6] [µg/mL] | MIC [7] [µg/mL] | Antibacterial activity (MIC) NB01006-AVR005 ([1]; ciprofloxacin-selected S. aureus mutant, CAMHB, 35° C., 20 hours) | Antibacterial activity (MIC) NB07001 ([2]; S. pneumoniae, CAMHB supplemented with 5% lysed horse blood, 35° C., 20 hours) | Antibacterial activity (MIC) NB52019 [3] | Antibacterial activity (MIC) NB04001 ([4]; CAMHB) | Antibacterial activity (MIC) NB01006 ([5]; CAMHB) | Antibacterial activity (MIC) NB27001 ([6]; CAMHB) | Antibacterial activity (MIC) NB01080 [7] | MIC [2, 8] [µg/mL] |
| --- | --- | --- | --- | --- | --- | --- | --- | --- | --- | --- | --- | --- | --- | --- | --- |
| C[C@H]1COc2c(N3CCC4(CC3)CC4N)c(F)cc3cc(C(=O)O)c(=O)n1c23 (single isomer, unassigned) [Example 1.33] | > 32 | 1 to 32 (≈ 2.58 to 82.6 µM) | > 32 | 1 to 32 (≈ 2.58 to 82.6 µM) | 1 to 32 (≈ 2.58 to 82.6 µM) | 1 to 32 (≈ 2.58 to 82.6 µM) | 1 to 32 (≈ 2.58 to 82.6 µM) | – | – | – | – | – | – | – | – |
| C[C@H]1COc2c(N3CC[C@@H](C4(N(C)C)CC4)C3)c(F)cc3cc(C(=O)O)c(=O)n1c23 [Example 1.27, (S)-10-((R)-3-(1-(dimethylamino)cyclopropyl)pyrrolidin-1-yl)-9-fluoro-3-methyl-5-oxo-2,3-dihydro-5H-[1,4]oxazino[2,3,4-ij]quinoline-6-carboxylic acid] | > 32 | < 1 | > 32 | 1 to 32 (≈ 2.41 to 77 µM) | 1 to 32 (≈ 2.41 to 77 µM) | 1 to 32 (≈ 2.41 to 77 µM) | 1 to 32 (≈ 2.41 to 77 µM) | – | – | – | – | – | – | – | – |
| (S)-9-fluoro-3-methyl-10-((R)-3-(1-((2,2,2-trifluoroacetyl)-14-azanyl)cyclopropyl)pyrrolidin-1-yl)-2,3-dihydro-5H-[1,4]oxazino[2,3,4-ij]quinolin-5-one trifluoroacetate salt [Example 6.1] | – | – | – | – | – | – | – | A (1 > A) | A (1 > A) | C (C ≥ 32) | A (1 > A) | A (1 > A) | B (32 > B ≥ 1) | A (1 > A) | – |
| C[C@H]1COc2c(N3CCC4(CC4N)C3)c(F)cc3cc(C(=O)O)c(=O)n1c23 (single isomer, unassigned) [Example 1.42] | 1 to 32 (≈ 2.68 to 85.7 µM) | < 1 | 1 to 32 (≈ 2.68 to 85.7 µM) | 1 to 32 (≈ 2.68 to 85.7 µM) | < 1 | < 1 | 1 to 32 (≈ 2.68 to 85.7 µM) | – | – | – | – | – | – | – | – |
| C[C@H](N)[C@@H]1CCN(c2c(F)c(Cl)c3cc(C(=O)O)c(=O)n4c3c2OC[C@@H]4C)C1 [Example 19.2, (S)-10-((R)-3-((S)-1-aminoethyl)pyrrolidin-1-yl)-8-chloro-9-fluoro-3-methyl-5-oxo-2,3-dihydro-5H-[1,4]oxazino[2,3,4-ij]quinoline-6-carboxylic acid] | < 1 | < 1 | 1 to 32 (≈ 2.44 to 78.1 µM) | < 1 | < 1 | < 1 | < 1 | – | – | – | – | – | – | – | – |
| C[C@H]1COc2c(N3CC4CCCC4(N)C3)c(F)cc3cc(C(=O)O)c(=O)n1c23 (stereo partly drawn) [Example 1.13, (3S)-10-(3a-aminohexahydrocyclopenta [c]pyrrol-2(1H)-yl)-9-fluoro-3-methyl-5-oxo-2,3-dihydro-5H-[1,4]oxazino[2,3,4-ij]quinoline-6-carboxylic acid] | > 32 | 1 to 32 (≈ 2.58 to 82.6 µM) | > 32 | 1 to 32 (≈ 2.58 to 82.6 µM) | 1 to 32 (≈ 2.58 to 82.6 µM) | 1 to 32 (≈ 2.58 to 82.6 µM) | > 32 | – | – | – | – | – | – | – | – |
| C[C@H]1COc2c(N3Cc4ccncc4C3)c(F)cc3cc(C(=O)O)c(=O)n1c23 [Example 1.15, (S)-10-(1,3-dihydro-2H-pyrrolo[3,4-c]pyridin-2-yl)-9-fluoro-3-methyl-5-oxo-2,3-dihydro-5H-[1,4]oxazino[2,3,4-ij]quinoline-6-carboxylic acid] | 1 to 32 (≈ 2.62 to 83.9 µM) | < 1 | > 32 | 1 to 32 (≈ 2.62 to 83.9 µM) | < 1 | 1 to 32 (≈ 2.62 to 83.9 µM) | 1 to 32 (≈ 2.62 to 83.9 µM) | – | – | – | – | – | – | – | – |
| C[C@H]1COc2c(N3CC[C@@H](C(C)(C)O)C3)c(F)cc3cc(C(=O)O)c(=O)n1c23 [Example 1.34, (S)-9-fluoro-10-((R)-3-(2-hydroxypropan-2-yl)pyrrolidin-1-yl)-3-methyl-5-oxo-2,3-dihydro-5H-[1,4]oxazino[2,3,4-ij]quinoline-6-carboxylic acid] | > 32 | > 32 | > 32 | > 32 | 1 to 32 (≈ 2.56 to 82 µM) | > 32 | > 32 | – | – | – | – | – | – | – | – |
| C[C@H]1COc2c(N3CCC(=C(Cl)CN)CC3)c(F)cc3cc(C(=O)O)c(=O)n1c23 [Example 1.10, (S)-10-(4-(2-amino-1-chloroethylidene)piperidin-1-yl)-9-fluoro-3-methyl-5-oxo-2,3-dihydro-5H-[1,4]oxazino[2,3,4-ij]quinoline-6-carboxylic acid] | > 32 | < 1 | > 32 | 1 to 32 (≈ 2.37 to 75.9 µM) | 1 to 32 (≈ 2.37 to 75.9 µM) | > 32 | 1 to 32 (≈ 2.37 to 75.9 µM) | – | – | – | – | – | – | – | – |
| C[C@H]1COc2c(N3CCC(F)(CN)C3)c(F)cc3cc(C(=O)O)c(=O)n1c23 (stereo partly drawn) [Example 1.16, (3S)-10-(3-(aminomethyl)-3-fluoropyrrolidin-1-yl)-9-fluoro-3-methyl-5-oxo-2,3-dihydro-5H-[1,4]oxazino[2,3,4-ij]quinoline-6-carboxylic acid] | 1 to 32 (≈ 2.64 to 84.4 µM) | < 1 | > 32 | 1 to 32 (≈ 2.64 to 84.4 µM) | < 1 | 1 to 32 (≈ 2.64 to 84.4 µM) | 1 to 32 (≈ 2.64 to 84.4 µM) | – | – | – | – | – | – | – | – |
| C[C@H]1COc2c(N3CC4CNCC4C3)c(F)cc3cc(C(=O)O)c(=O)n1c23 (stereo partly drawn) [Example 1.37, (3S)-9-fluoro-10-(hexahydropyrrolo[3,4-c]pyrrol-2(1H)-yl)-3-methyl-5-oxo-2,3-dihydro-5H-[1,4]oxazino[2,3,4-ij]quinoline-6-carboxylic acid] | > 32 | > 32 | > 32 | > 32 | > 32 | > 32 | > 32 | – | – | – | – | – | – | – | – |
| C[C@H]1COc2c(N3CC[C@@H](C4(N)CC4)C3)cc(N)c3cc(C(=O)O)c(=O)n1c23 [Example 20, (S)-8-amino-10-((R)-3-(1-aminocyclopropyl)pyrrolidin-1-yl)-3-methyl-5-oxo-2,3-dihydro-5H-[1,4]oxazino[2,3,4-ij]quinoline-6-carboxylic acid] | 1 to 32 (≈ 2.6 to 83.2 µM) | < 1 | > 32 | 1 to 32 (≈ 2.6 to 83.2 µM) | < 1 | 1 to 32 (≈ 2.6 to 83.2 µM) | 1 to 32 (≈ 2.6 to 83.2 µM) | – | – | – | – | – | – | – | – |
| C[C@H]1COc2c(N3CCC4(CC3)CNC4)c(F)cc3cc(C(=O)O)c(=O)n1c23 [Example 1.17, (S)-9-fluoro-3-methyl-5-oxo-10-(2,7-diazaspiro[3,5]nonan-7-yl)-2,3-dihydro-5H-[1,4]oxazino[2,3,4-ij]quinoline-6-carboxylic acid] | > 32 | > 32 | > 32 | > 32 | > 32 | > 32 | > 32 | – | – | – | – | – | – | – | – |
| CC1CCc2c(N3CC[C@@H](C4(N)CC4)C3)c(F)cc3cc(C(=O)O)c(=O)n1c23.O=C(O)C(F)(F)F (single isomer, unassigned) [Example 8] | < 1 | – | 1 to 32 | < 1 | < 1 | 1 to 32 | < 1 | – | – | – | – | – | – | – | < 1 |
| C[C@H]1COc2c(N3CC[C@@H](C4(N)CC4)C3)c(F)cc3cc(C#N)c(=O)n1c23.O=C(O)C(F)(F)F [Example 5, (S)-10-((R)-3-(1-aminocyclopropyl)pyrrolidin-1-yl)-9-fluoro-3-methyl-5-oxo-2,3-dihydro-5H-[1,4]oxazino[2,3,4-ij]quinoline-6-carbonitrile trifluoroacetate salt] | < 1 | – | 1 to 32 | < 1 | < 1 | 1 to 32 | < 1 | – | – | – | – | – | – | – | < 1 |
| CC1Cc2c(N3CCNCC3)c(F)cc3cc(C(=O)O)c(=O)n1c23 (stereo not drawn) [Example 9.3, 8-fluoro-2-methyl-4-oxo-9-(piperazin-1-yl)-1,2-dihydro-4H-pyrrolo[3,2,1-ij]quinoline-5-carboxylic acid] | > 32 | – | > 32 | > 32 | > 32 | 1 to 32 (≈ 3.02 to 96.6 µM) | > 32 | – | – | – | – | – | – | – | > 32 |
| C[C@H]1COc2c(N3CCC(O)(CN)CC3)c(F)cc3cc(C(=O)O)c(=O)n1c23 [Example 1.68, (S)-10-(4-(aminomethyl)-4-hydroxypiperidin-1-yl)-9-fluoro-3-methyl-5-oxo-2,3-dihydro-5H-[1,4]oxazino[2,3,4-ij]quinoline-6-carboxylic acid] | > 32 | > 32 | > 32 | > 32 | > 32 | > 32 | > 32 | – | – | – | – | – | – | – | – |
| C[C@H]1COc2c(N3CCC4(CCC4N)CC3)c(F)cc3cc(C(=O)O)c(=O)n1c23 (single isomer, unassigned) [Example 1.32] | > 32 | 1 to 32 (≈ 2.49 to 79.7 µM) | > 32 | 1 to 32 (≈ 2.49 to 79.7 µM) | 1 to 32 (≈ 2.49 to 79.7 µM) | > 32 | > 32 | – | – | – | – | – | – | – | – |

— patent US20180318311A1, “TRICYCLIC 2-QUINOLINONES AS ANTIBACTERIALS” (priority 2017, published 2018)
